Key:
EGFR kinase = EGFR kinase (Homo sapiens (Human), UniProt P00533); assay: EGFR Kinase Activity Assay (Time-Resolved fluorescence); format: biochemical; settings: human-derived recombinant EGFR kinase, 20 μM ATP, 25° C., 45 minutes; read-out: IC50 (EGFR/BIO)
Experimental: The in vitro EGFR kinase activity was tested by the following assay.
The following assay may be used to determine the activity of the compounds of the invention for inhibiting EGFR kinase activity. […] EGFR kinase used in this assay is a human-derived recombinant protein (Cell signaling technology, #7908), which was reacted with peptide substrate and different concentrations of tested compounds in a buffer solution containing 60 mM HEPES (pH7.5), 5 mM MgCl2, 5 mM MnCl2, 3 μM Na3VO4, […] (1000×) and 20 μM ATP at 25° C., for 45 minutes. The EGFR kinase activity was determined by using a Time-Resolved fluorescence method.

[1] = tested on: human epidermoid carcinoma A431 cells; assay: EGFR Cell Proliferation Inhibition Assay (SRB method, 72 hours); format: cell-based; settings: A-431
From the text: The activity is represented by the IC50 value. The general procedures of the assay are given as follows: The cancer cells A431 that highly expressing EGFR (Institute of biochemistry and cell biology) were chosen and seeded to 96-well cell culture plate at a suitable concentration (e.g., 5000 cells/mL medium). […] Then, the cell culture medium was replaced by fresh one with tested compounds added in it at serial concentrations (general 6 to 7 concentrations). Then the cells were put back to the incubator and cultured continuously. 72 hours later, the activity of the tested compounds for inhibiting the cell proliferation was determined by using Sulforhodamine B (SRB) method. IC50 value on tested cells are calculated by the data of inhibition rates of serial concentrations of the tested compounds.

[2] = tested on: xenografts of Calu-3 human lung cancer; assay: Therapeutic effects against xenografts of Calu-3 human lung cancer in nude mice; format: in vivo, BALB/cA-nude mice; settings: for tolerance of the mice: present administration protocol
Experimental: BALB/cA-nude mice, 6 to 7 weeks old, ♀, purchased from Slaccas Experimental Animal LTD., CO.
Nude mice were hypodermic inoculated Calu-3 human lung cancer cell. After tumors grew to 150-250 mm^3, mice were randomly divided into teams (d0).
The volume of tumors and the weigh of the mice were measured and recorded for 2-3 times per week.
The calculation formula of the volume of tumor (V) is: V=½×a×b^2, a: length of tumor, b: width of tumor.

[3] = Pharmacokinetics Assay in rats, intragastric administration, LC/MS/MS; format: in vivo; settings: both sexes, rat, plasma, po, SD rats, 25 mg/kg; for Vd/F: read-out: Apparent Distribution Volume Vz/F; for CL/F: read-out: Clearance CL/F (converted); for half-life: read-out: Half-Life t½ (converted); for Cmax: read-out: Plasma Conc. Cmax
Experimental: The pharmacokinetic behavior of the compounds of the present invention was studied and evaluated in rats. 8 healthy adult SD rats, male and female in half, were purchased from SINO-BRITSH SIPPR/BK LAB. ANIMAL LTD., CO, License number: SCXK (Shanghai) 2003-0002 The right amount of compounds were weighted and grinded with 0.5% Sodium Carboxymethyl cellulose uniformly, suspended them with 1% tween 80 to 2.5 mg/mL of suspension before use. […] 8 Healthy adult adult SD rats, male and female in half, were divided into 2 groups. After an overnight fast, the rats were administered intragastrically at a dose of 25.0 mg/kg. […] The plasma samples were stored at −20° C. until analysis. The rats were fed 2 hours after administration. 50 μL of rat plasmas taken at various time points after administration were mixed with 50 μL of standard series solution to obtain plasma concentration of 50.0, 100, 200, 500, 1000, 2000, 5000 ng/mL. 150 μL methanol was added and then the mixture was mixed for 3 minute using a vortexer and centrifuged for 10 minutes at 13,500 rpm. 10 μL of the supernatant was analyzed by LC-MS/MS. The main pharmacokinetic parameters were caculated by DAS 2.0 software.

[4] = high dose (200 mg/kg), Calu-3 xenografts
[5] = low dose (100 mg/kg), Calu-3 xenografts

EGFR kinase, sequence (P00533 25-1210): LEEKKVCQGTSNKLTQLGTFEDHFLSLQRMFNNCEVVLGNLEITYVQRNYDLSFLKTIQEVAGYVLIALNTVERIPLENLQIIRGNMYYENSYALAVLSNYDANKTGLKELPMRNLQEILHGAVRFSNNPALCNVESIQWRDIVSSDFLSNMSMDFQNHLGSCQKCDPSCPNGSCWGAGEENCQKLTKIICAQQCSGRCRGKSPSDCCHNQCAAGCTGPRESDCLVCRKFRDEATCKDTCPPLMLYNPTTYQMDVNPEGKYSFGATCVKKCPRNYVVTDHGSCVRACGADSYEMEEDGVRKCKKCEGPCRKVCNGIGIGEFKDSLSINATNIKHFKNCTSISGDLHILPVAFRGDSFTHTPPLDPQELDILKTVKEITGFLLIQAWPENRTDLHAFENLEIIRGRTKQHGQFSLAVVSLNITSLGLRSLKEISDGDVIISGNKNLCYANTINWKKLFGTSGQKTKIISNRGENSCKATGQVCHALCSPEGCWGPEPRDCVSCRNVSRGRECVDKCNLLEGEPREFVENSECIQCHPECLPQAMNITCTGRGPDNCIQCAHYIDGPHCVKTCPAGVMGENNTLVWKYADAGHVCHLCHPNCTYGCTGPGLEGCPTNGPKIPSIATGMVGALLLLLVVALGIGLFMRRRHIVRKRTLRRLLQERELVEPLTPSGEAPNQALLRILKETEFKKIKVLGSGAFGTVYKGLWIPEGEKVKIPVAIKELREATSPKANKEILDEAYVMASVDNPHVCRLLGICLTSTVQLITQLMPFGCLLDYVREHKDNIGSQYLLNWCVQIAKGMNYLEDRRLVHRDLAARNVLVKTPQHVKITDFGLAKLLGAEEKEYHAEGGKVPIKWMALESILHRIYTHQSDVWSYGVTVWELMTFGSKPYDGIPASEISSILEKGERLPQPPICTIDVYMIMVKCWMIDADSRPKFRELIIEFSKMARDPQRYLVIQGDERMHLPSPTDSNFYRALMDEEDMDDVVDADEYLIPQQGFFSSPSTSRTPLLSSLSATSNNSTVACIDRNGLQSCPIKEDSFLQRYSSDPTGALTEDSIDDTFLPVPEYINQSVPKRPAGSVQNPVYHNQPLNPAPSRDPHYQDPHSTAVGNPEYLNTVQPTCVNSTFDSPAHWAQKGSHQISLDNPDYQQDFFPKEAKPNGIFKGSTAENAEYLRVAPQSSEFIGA

Compound | IC50 (EGFR kinase) | IC50 [1] | reduced tumor volume (fraction of tumors) [2, 4] | reduced tumor volume (fraction of tumors) [2, 5] | tolerance of the mice [2] | Vd/F [3] | CL/F [3] | half-life [3] | Cmax [3] | other results
CCOc1cc2ncnc(Nc3ccc(F)c(Cl)c3)c2cc1NC(=O)/C=C/[C@H]1CCCN1C [Example 9, (E)-N-[4-[(3-Chloro-4-fluoro-phenyl)amino]-7-ethoxy-quinazolin-6-yl]-3-[(2R)-1-methylpyrrolidin-2-yl]prop-2-enamide] | 2 nM | 8 nM |  |  |  |  |  |  |  | 
CCOc1cc2ncc(C#N)c(Nc3ccc(OCc4ccccn4)c(Cl)c3)c2cc1NC(=O)/C=C/[C@H]1CCCN1C [Example 5, (E)-N-[4-[[3-Chloro-4-(2-pyridylmethoxy)phenyl]amino]-3-cyano-7-ethoxy-6-quinolyl]-3-[(2R)-1-methylpyrrolidin-2-yl]prop-2-enamide] |  |  | 4/6 | 3/6 | well tolerant | 2.6 ± 0.94 L/kg | 8.83 mL/min/kg | 3.4 ± 0.45 h | 6470 ± 1810 ng/mL | 
CCOc1cc2ncnc(Nc3ccc(F)c(Cl)c3)c2cc1NC(=O)/C=C/[C@@H]1CCCN1C [Example 7, (E)-N-[4-[(3-Chloro-4-fluoro-phenyl)amino]-7-ethoxy-quinazolin-6-yl]-3-[(2S)-1-methylpyrrolidin-2-yl]prop-2-enamide] | 4 nM |  |  |  |  |  |  |  |  | 
CCOc1cc2ncc(C#N)c(Nc3ccc(OCc4ccccn4)c(Cl)c3)c2cc1NC(=O)/C=C/[C@@H]1CCCN1C [Example 1, (E)-N-[4-[[3-Chloro-4-(2-pyridylmethoxy)phenyl]amino]-3-cyano-7-ethoxy-6-quinolyl]-3-[(2S)-1-methylpyrrolidin-2-yl]prop-2-enamide] |  |  | 1/6 | 2/6 | well tolerant | 3.71 ± 1.68 L/kg | 12.7 mL/min/kg | 4.04 ± 1.39 h | 4480 ± 1880 ng/mL | inhibition of the growth of Calu-3 human lung cancer (in words) ([2]; Calu-3 xenografts): markedly inhibited; completely degraded tumor (fraction of tumors) [2, 4]: 1/6; MRT ([3]; read-out: Mean Residence Time MRT): 7.78 ± 1.89 h

More lines, main results first:

IC50 (EGFR kinase) | IC50 [1] | Compound | reduced tumor volume (fraction of tumors) [2, 4] | reduced tumor volume (fraction of tumors) [2, 5] | tolerance of the mice [2] | Vd/F [3] | CL/F [3] | half-life [3] | Cmax [3] | other results
6 nM | 3 nM | CCOc1cc2ncc(C#N)c(Nc3ccc(OCc4ccccn4)c(Cl)c3)c2cc1NC(=O)/C=C/[C@@H]1CCCN1 [Example 2, (E)-N-[4-[[3-Chloro-4-(2-pyridylmethoxy)phenyl]amino]-3-cyano-7-ethoxy-6-quinolyl]-3-[(2S)-pyrrolidin-2-yl]prop-2-enamide] |  |  |  |  |  |  |  | 
59 nM | 36 nM | CCOc1cc2ncc(C#N)c(Nc3ccc(OCc4ccccn4)c(Cl)c3)c2cc1NC(=O)/C=C/[C@@H]1C[C@@H](O)CN1C [Example 3, (E)-N-[4-[[3-Chloro-4-(2-pyridylmethoxy)phenyl]amino]-3-cyano-7-ethoxy-6-quinolyl]-3-[(2S,4R)-4-hydroxy-1-methyl-pyrrolidin-2-yl]prop-2-enamide] |  |  |  |  |  |  |  | 
